Data taken from patent US9133242B2, “Peptide for use as a medicament, in particular for the treatment of cancer” (priority 2010, dated 2015).
Entries after “also recorded” stand apart in the source; their conditions may differ. Where no end group is shown, it is not given here.

Assays:
Type in all cases: cell-based
[1] = test system: FIBRO 1 and FIBRO 2 nontumorigenic fibroblast cells; assay: Immunofluorescent labeling of microtubule network, healthy fibroblasts; conditions: human fibroblasts FIBRO 1 and FIBRO 2, 15 μM
Experimental: FIG. 4 represents photos of non-tumor cell lines, FIBRO 1 and FIBRO 2 (fibroblast cells), treated with the peptide of SEQ. 1 at 15 μM and not treated with this peptide (control);
The specific activity of the peptide of SEQ. Two varieties of nontumorigenic fibroblast cells: FIBRO 1 and FIBRO 2, were brought into contact with the peptide of SEQ. 1 in order to see whether the microtubule network of healthy cells was also disrupted by the peptide. […] 1 (no modification of polymerized tubulin density), at the very least at concentrations of peptide of SEQ. 1 used for the cancer cells (15 μM). This observation represents an important advance of the present invention.

[2] = test system: A 549 (Human lung tumor); assay: MTT cell viability, A549 lung cancer line; conditions: variants tested on the A549 line; for evaluation of the activity (in words): compared with peptide SEQ. 1
Experimental: Approximately 10 000 cells were seeded, in a volume of 0.2 mL per well, into 96-well microplates for 24 hours before treatment with the peptide of SEQ. 1. The cells were incubated for 48 to 72 hours at 37° C. in a CO2 incubator in the presence or absence of the peptide of SEQ. 1 at various concentrations.
Following this incubation, MTT reagent or 3-(4,5-dimethyl[…])-2,5-diphenyltetrazolium bromide (0.5 mg/ml in a volume of 0.1 ml) was added to each well and incubated for 2 hours at 37° C.
The tetrazolium ring contained by the MTT is then reduced by the succinate dehydrogenase of the live cells, to give formazan. Next, the supernatant was removed and 0.1 ml of lysis buffer (isopropanol containing 10% of triton×100 and 10% of 1N HCl) was added in order to dissolve the bluish violet formazan precipitate formed. After a few minutes, the absorbance was determined at ambient temperature using a microplate reader at a test wavelength of 562 nm. Wells not comprising peptide of SEQ. 1 were used so as to verify the viability of control cells. IC 50 (concentration of peptide of SEQ. 1 causing 50% cytotoxicity on these cell lines) values for each cell variety were evaluated by means of the ratio of the absorbance of the treated cells to the absorbance of the control cells. […]

[3] = test system: TX 2 cells (line derived from breast tumors which no longer respond to Taxol); assay: Growth inhibition of Taxol-resistant TX 2 cells; conditions: after 24 H of culture
Experimental: (§1) The studies were carried out on two cell lines, TX 1 and TX 2, derived from breast tumors which no longer respond to Taxol. […] 1 and the peptide of SEQ. 7. […]

[4] = test system: TX 1 cells (line derived from breast tumors which no longer respond to Taxol); assay: Growth inhibition of Taxol-resistant TX 1 cells; conditions: after 24 H of culture
Experimental: as §1

Substance	evaluation of the activity (in words) [2]	also measured
INWLKIAKKVAGML-NH2 [SEQ. 1, INWLKIAKKVAGML-NH2]	–	modification of polymerized tubulin density in healthy cells [1]: do not respond at all
INWKKIAKKVAGML-NH2 [SEQ. 7, INWKKIAKKVAGML-NH2]	absolutely equivalent to the peptide SEQ. 1; also recorded: Very good activity	growth inhibition [3]: significant; growth inhibition [4]: significant
INWLKIAKKVAG-NH2 [SEQ. 19, INWLKIAKKVAG-NH2]	Medium activity	–
INWLAIAKKVAGML [SEQ. 3, INWLAIAKKVAGML-NH2]	absolutely equivalent to the peptide SEQ. 1; also recorded: Very good activity	–
INWLAIAAKVAGML [SEQ. 4, INWLAIAAKVAGML-NH2]	absolutely equivalent to the peptide SEQ. 1; also recorded: Very good activity	–
INWLKIAKKVAGM-NH2 [SEQ. 18, INWLKIAKKVAGM-NH2]	Medium activity	–
INWLKIAKKVKGML [SEQ. 9, INWLKIAKKVKGML-NH2]	absolutely equivalent to the peptide SEQ. 1; also recorded: Very good activity	–
INWLKIAKKVAGML [SEQ. 2]	Medium activity	IC50 [2]: ~15 µM
